Data taken from PubChem BioAssay AID1628 (Sanford-Burnham Center for Chemical Genomics, 2009).
Several values for one entry are separate records, joined by “and”; a condition that tells them apart may be missing. Identical values can stand only once.

Tested on: MIN6 insulin promoter GFP reporter, high-content imaging
Assay: insulin promoter down-regulators in MIN6 cells, imaging, high-content screening, mouse beta cells (AID 1628);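 note: potency for lowering insulin promoter GFP signal so compounds are inhibitors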

IC50: 2630 nM and 1620 nM
SMILES: CN(C)c1ccnc2c[cH-]cc12.[Fe].c1ccc(-[c-]2[c-](-c3ccccc3)[c-](-c3ccccc3)[c-](-c3ccccc3)[c-]2-c2ccccc2)cc1 (stereo unspecified)
